This passage reports Kd, Activity and Fold-Activation results from patent publication US20100273722A1, “MODIFIED MINIATURE PROTEINS” (Yale University, priority 2007, published 2010).

Values joined by “and” are separate entries in the source; they are usually repeats but may differ in a detail not shown here. Identical values can stand only once. Like-named read-outs stand apart in the source and are kept apart here. Residues, ends and D or L forms follow the SMILES beside them.

In experiment [1] the target is T1, c-Src SH3 domain-GST fusion protein (Gallus gallus, UniProt P00523). Description: Fluorescence polarization direct binding assay, c-Src SH3. Set-up: species or system chicken. Particulars: 50 nM fluorescently labeled ligand, PBS pH 7.4; read-out: Kd, c-Src SH3. The protocol:
(§1) Polarization was measured by excitation with vertically polarized light at 485 nm and the fluorescence emission detected at 530 nm in both the vertical and horizontal directions. An average of five measurements were recorded for each well. Samples were equilibrated at room temperature for 25 min before analysis, a time sufficient for the binding reactions to reach equilibrium. The polarization data were fit using Kaleidagraph v3.6 software to Eq. 5, which is derived from first principles without assumptions. […] In this equation, Pobs is the observed polarization value at any given concentration of target protein (GST•SH3 domain). Pmin is the polarization of peptide^Flu at 50 nM in the absence of target protein. Pmax is the maximum polarization of peptide^Flu at saturation with target protein. Kd is the equilibrium dissociation constant. […] Free fits are shown. Kd values were estimated as described.
For orientation: In fluorescence polarisation assays a small probe gives low polarisation when free and higher when bound to something large.

For experiment [2], the target named is Fyn SH3 domain-GST fusion protein (Homo sapiens, UniProt P06241). Description: Fluorescence polarization direct binding assay, Fyn SH3. The note with it: 50 nM fluorescently labeled ligand, PBS pH 7.4; read-out: Kd, Fyn SH3. The protocol: (§2) Polarization was measured by excitation with vertically polarized light at 485 nm and the fluorescence emission detected at 530 nm in both the vertical and horizontal directions. An average of five measurements were recorded for each well. Samples were equilibrated at room temperature for 25 min before analysis, a time sufficient for the binding reactions to reach equilibrium. The polarization data were fit using Kaleidagraph v3.6 software to Eq. 5, which is derived from first principles without assumptions. […] In this equation, Pobs is the observed polarization value at any given concentration of target protein (GST•SH3 domain). Pmin is the polarization of peptide^Flu at 50 nM in the absence of target protein. Pmax is the maximum polarization of peptide^Flu at saturation with target protein. Kd is the equilibrium dissociation constant. […] In these cases a lower limit Kd was estimated by setting Pmax equal to the observed polarization at the highest target protein concentration tested, which was often limited by solubility. […] Free fits are shown. Kd values were estimated as described. […] In several cases, the plots of polarization versus [SH3 domain] began to increase at high [SH3 domain] (>50 micromolar), perhaps because of a second binding event. In these cases (indicated by an asterisk (*) in Table 5), data above 50 micromolar target protein was excluded during the curve fits.
Chain of Fyn SH3 domain-GST fusion protein (P06241 81-142): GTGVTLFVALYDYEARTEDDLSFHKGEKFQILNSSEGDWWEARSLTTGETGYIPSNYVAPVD

Experiment [3] concerns the target Hck SH3 domain-GST fusion protein (Homo sapiens, UniProt P08631). Description: Fluorescence polarization direct binding assay, Hck SH3. The note with it: 50 nM fluorescently labeled ligand, PBS pH 7.4; read-out: Kd, Hck SH3. The protocol:
as §1

The target in experiment [4] is Lyn SH3 domain-GST fusion protein (Homo sapiens, UniProt P07948). The experiment in a line: Fluorescence polarization direct binding assay, Lyn SH3. The note with it: 50 nM fluorescently labeled ligand, PBS pH 7.4; read-out: Kd, Lyn SH3. The protocol: as §2
Chain of Lyn SH3 domain-GST fusion protein (P07948 62-122): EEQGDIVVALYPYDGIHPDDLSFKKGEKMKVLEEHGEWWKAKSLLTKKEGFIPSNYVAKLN
Experiment [5] concerns the target Lck SH3 domain-GST fusion protein (Homo sapiens, UniProt P06239). Description: Fluorescence polarization direct binding assay, Lck SH3. The note with it: 50 nM fluorescently labeled ligand, PBS pH 7.4; read-out: Kd, Lck SH3. The protocol:
as §2

Another experiment concerns the target c-Src SH3^P133L (Gallus gallus, UniProt P00523, P133L). Description: Fluorescence polarization direct binding assay, c-Src SH3^P133L. Also on record: species or system chicken. The note with it: 50 nM fluorescently labeled ligand; lower limit estimated; read-out: Kd, c-Src P133L SH3. The protocol:
as §1

Experiment [6] deals with non-Src family SH3 domain (Ab1, Nck1, Grb2, Abp1). The experiment in a line: Fluorescence polarization binding to non-Src family SH3 domains. Particulars: data not shown. The protocol: Fluorescence polarization assays were performed with 50 nM fluorescently labeled miniature protein and the indicated SH3 domain-GST fusion protein in PBS (1 mM KH2PO4, 155 mM NaCl, 3 mM Na2HPO4 (pH 7.4)) supplemented with 1 mM DTT and using the Analyst™ AD 96·384 automated fluorescence plate reader (LjL Biosystems). Binding reactions (32 microliters) were analyzed within 384-well assay plates (Corning Inc., Plate #3654) using settings defined by Criterion Host software v.2.00.11 and z height 1 mm. Polarization was measured by excitation with vertically polarized light at 485 nm and the fluorescence emission detected at 530 nm in both the vertical and horizontal directions. An average of five measurements were recorded for each well. Samples were equilibrated at room temperature for 25 min before analysis, a time sufficient for the binding reactions to reach equilibrium. […]
In this equation, Pobs is the observed polarization value at any given concentration of target protein (GST•SH3 domain). […] The observed binding free energy, ΔG, was calculated from the relationship ΔG=−RT ln Kd^−1, where R is the universal gas constant (1.987×10^−3 kcal mol^−1 K^−1) and T is the temperature in Kelvin (298 K). Fluorescence polarization analysis of the binding of fluorescently labeled miniature proteins and Peptide 1 to c-Src SH3^P133L are shown in FIG. 11. […]

Another experiment has as its target T2, Hck kinase (Homo sapiens, UniProt P08631).
T2 construct: His6 (N); made in house; host or cells: HighFive insect cells, co-infected with Hck and Csk baculovirus
Description: Hck kinase activation, NADH-coupled assay. It counts as biochemical. Particulars: Activator 50 micromolar. The protocol:
Activation of Hck kinase was measured using a validated NADH-coupled assay as described. Briefly, purified Hck kinase (15 micromolar) was first pre-incubated with 500 micromolar ATP and 20 mM MgCl2 for about 30 min on ice to initiate autophosphorylation of Y416. The autophosphorylated product (0.55 micromolar final concentration) was then incubated in Hck Reaction Buffer (20 mM MgCl2, 0.1 mM DTT, 20 μg/mL BSA, 100 mM HEPES (pH 7.5)) for 10 min at room temperature with the indicated concentration of Nef or miniature protein. At this time the remaining assay components (1 mM PEP, 0.2 mM NADH, 6 U pyruvate kinase (Type II from rabbit muscle, Sigma), 6 U L-lactic dehydrogenase (Type II from rabbit muscle, Sigma), 600 micromolar substrate peptide, and 500 micromolar ATP) were added to initiate the reaction (total volume 200 microliters) and the absorbance at 340 nm was monitored every 10 sec for 10 min using a Beckman DU 730 UVN is Spectrophotomer. The activation constant Kact for each ligand was calculated from the initial rate as a function of ligand concentration as previously described, using Eq. 6. Fold activation was calculated by dividing the rate in the presence of ligand by the rate in the absence of ligand.
va=Vact[L]/(Kact±[L]) Equation 6.
In this equation va is velocity measured in the presence of ligand minus the velocity measured in its absence; Vact is the maximal activated velocity minus the velocity measured in the absence of ligand; [L] is the concentration of activator and Kact is concentration of activator at half-maximal activation.

Experiment [7] concerns the target T1, c-Src SH3 domain-GST fusion protein. The note with it: literature value; read-out: Kd, c-Src SH3 (reported); cited from earlier work.

T2 sequence (P08631 whole entry): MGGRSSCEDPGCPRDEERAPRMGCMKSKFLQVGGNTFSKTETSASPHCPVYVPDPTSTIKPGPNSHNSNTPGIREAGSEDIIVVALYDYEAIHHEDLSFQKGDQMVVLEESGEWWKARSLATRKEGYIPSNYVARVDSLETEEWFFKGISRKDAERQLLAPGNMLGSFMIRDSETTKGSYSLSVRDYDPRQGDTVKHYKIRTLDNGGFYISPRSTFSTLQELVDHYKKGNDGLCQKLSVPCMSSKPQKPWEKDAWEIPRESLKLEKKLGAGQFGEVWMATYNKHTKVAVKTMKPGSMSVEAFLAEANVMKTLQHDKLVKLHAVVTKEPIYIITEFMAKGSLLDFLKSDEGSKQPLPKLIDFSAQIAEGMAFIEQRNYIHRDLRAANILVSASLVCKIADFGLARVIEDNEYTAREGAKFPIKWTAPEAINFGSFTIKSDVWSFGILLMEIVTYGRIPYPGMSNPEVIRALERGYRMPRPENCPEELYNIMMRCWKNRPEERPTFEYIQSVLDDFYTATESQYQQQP
Chain of Hck SH3 domain-GST fusion protein (P08631 77-137): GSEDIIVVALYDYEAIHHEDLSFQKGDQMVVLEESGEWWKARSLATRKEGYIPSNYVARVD
Chain of Lck SH3 domain-GST fusion protein (P06239 62-128): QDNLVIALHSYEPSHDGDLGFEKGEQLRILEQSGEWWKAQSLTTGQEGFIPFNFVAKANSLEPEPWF

One may read the Kd as the free concentration of one partner at which half of the binding sites on the other are occupied at equilibrium, for simple one-to-one binding. Turning to `CC(C)C[C@H](NC(=O)[C@H](CCCNC(=N)N)NC(=O)[C@@H]1CCCN1C(=O)[C@H](CCCNC(=N)N)NC(=O)[C@H](CC(N)=O)NC(=O)[C@H](CCCNC(=N)N)NC(=O)[C@@H]1CCCN1C(=O)[C@@H]1CCCN1C(=O)[C@H](CC(C)C)NC(=O)[C@@H]1CCCN1C(=O)[C@@H]1CCCN1C(=O)[C@H](C)N)C(N)=O` [Peptide 1] (H-APPLPPRNRPRL-NH2), the equilibrium dissociation constant (Kd) is 1500 ± 100 nM in [1]; 870 to 2000 nM in [2]; 870 to 2000 nM in experiment [3]; 870 to 2000 nM in [4]; > 20000 nM in experiment [5]; > 20000 nM on c-Src SH3^P133L. For the same compound, the figures for the Kd in [6] and in experiment [7] were > 20000 nM and 1200 nM, respectively. Besides, the Activity at Hck kinase worked out at 33.9 ± 3.2 nmol/s. In addition, at Hck kinase (rate with ligand / rate without ligand), the Fold-Activation is 3 and 3 ± 1.
